Experimental data: ChEMBL document CHEMBL4834476, “Potent antiviral activity of Agrimonia pilosa, Galla rhois, and their components against SARS-CoV-2” (2021)
The source made the active and inactive calls. No cut-off for these calls is given here.

How the values were obtained:
SARS-CoV-2 [1] = assay: Antiviral activity against SARS-CoV-2 NCCP43326 infected in African green monkey Vero cells assessed as reduction in spike protein production at 1 to 25 ug/ml treated with compound for 1 hr post-infection followed by drug wash-out and measured at 72 hrs post-infection by ELISA; type: functional, organism-based; details: Severe acute respiratory syndrome coronavirus 2, dose 1-25 µg/ml
SARS-CoV-2 [2] = assay: (§1) Antiviral activity against SARS-CoV-2 NCCP43326 infected in African green monkey Vero cells assessed as inhibition of plaque formation at 1 to 25 ug/ml treated with compound for 1 hr post-infection followed by drug wash-out and measured at 72 hrs post-infection by crystal violet staining analysis; type: functional, Severe acute respiratory syndrome coronavirus 2; details: for Activity: Severe acute respiratory syndrome coronavirus 2, dose 1-25 µg/ml
SARS-CoV-2 [3] = assay: Antiviral activity against SARS-CoV-2 NCCP43326 infected in African green monkey Vero cells assessed as reduction in spike protein production at 1 to 25 ug/ml cells were infected with virus for 1 hr followed by wash-out period and later treated with compound and measured after 72 hrs by ELISA; type: functional, organism-based; details: Severe acute respiratory syndrome coronavirus 2, dose 1-25 µg/ml
SARS-CoV-2 [4] = assay: as §1, with “at” for “at 1 to”, “analysis relative to control” for “analysis”; type: functional; details: Severe acute respiratory syndrome coronavirus 2, NCCP43326, Vero
SARS-CoV-2 [5] = assay: Antiviral activity against SARS-CoV-2 NCCP43326 infected in African green monkey Vero cells assessed as inhibition of plaque formation at 0.125 to 0.5 ug/ml treated with compound for 1 hr post-infection followed by drug wash-out and measured at 72 hrs post-infection by staining analysis; type: functional, organism-based; details: Severe acute respiratory syndrome coronavirus 2, dose 0.125-0.5 µg/ml

O=C(OC[C@H]1O[C@@H](OC(=O)c2cc(O)c(O)c(O)c2)[C@H](OC(=O)c2cc(O)c(O)c(O)c2)[C@@H](OC(=O)c2cc(O)c(O)c(O)c2)[C@@H]1OC(=O)c1cc(O)c(O)c(O)c1)c1cc(O)c(O)c(O)c1 [PENTAGALLOYL GLUCOSE]
Activity (SARS-CoV-2 [1]): Active | inhibition (INH) (SARS-CoV-2 [2]; dose 1-25 µg/ml, at 1 to 25 µg/mL): 100% | Activity (SARS-CoV-2 [3]): Active | inhibition at 25 µg/mL (SARS-CoV-2 [4]): 100% | Activity (SARS-CoV-2 [5]): Active

CCOC(=O)c1cc(O)c(O)c(O)c1 [ETHYLGALLATE]
Activity (SARS-CoV-2 [2]): Active | inhibition at 25 µg/mL (SARS-CoV-2 [4]): 21.1%

C[C@H]1[C@H](C)CC[C@]2(C(=O)O)CC[C@]3(C)C(=CC[C@@H]4[C@@]5(C)CC[C@H](O)C(C)(C)[C@@H]5CC[C@]43C)[C@H]12 [URSOLIC ACID]
Activity (SARS-CoV-2 [1]): Active | Activity (SARS-CoV-2 [2]): Active | Activity (SARS-CoV-2 [3]): Active | inhibition at 25 µg/mL (SARS-CoV-2 [4]): 78.3%

O=c1c(O)c(-c2ccc(O)c(O)c2)oc2cc(O)cc(O)c12 [QUERCETIN]
Activity (SARS-CoV-2 [1]): Active | Activity (SARS-CoV-2 [2]): Active | Activity (SARS-CoV-2 [3]): Active | inhibition at 25 µg/mL (SARS-CoV-2 [4]): 67.2%
